The record followed here is patent publication US5296591A, “Trifluoromethylketone derivatives, processes for preparation thereof and use thereof” (Fujisawa Pharmaceutical Co., Ltd., priority 1990, dated 1994).

Assay [1] relates to human sputum elastase-induced lung hemorrhage in hamsters. In words: Elastase-induced pulmonary damage (lung hemorrhage) in hamsters. The following applies: 5 min predose; for Hemorrhage (OD541 nm): BAL hemoglobin 3 h after elastase; for ED50 elastase-induced lung hemorrhage: intratracheal. It counts as in vivo, hamster. How it is done: Hamsters under pentobarbital anesthesia were used. Saline or saline-containing human sputum elastase was instilled intratracheally via a small incision in the ventral neck region using 1-ml syringe with a 27-gauge needle. After 3 hours, animals were sacrificed by CO2 asphyxiation, each animal's trachea was reexposed. The lungs were then laveged using a 2.5-ml aliquot of saline and then withdrawing the saline, yielding a final volume of approximately 1.5 ml bronchoalveolar lavage (BAC) fluid from each animal.
The cells of BAL fluid were collected by centrifugation and were then diluted with distilled water to disrupt, and the hemoglobin contents determined spectrophotometrically at 541 nm.
Test drugs were dissolved in saline or methyl cellulose, and instilled intratracheally in the same manner as used to instill elastase, at 5 minutes before instillation of elastase.

In assay [2] the target is T1, human sputum elastase (HSE) (Homo sapiens, UniProt P08246).
T1 construct: HSE was obtained from Elastin Products Company Inc., Mo., U.S.A; purchased Elastin Products Company Inc; host or cells: human sputum (from the enzyme's name)
T1 sequence (P08246 30-267): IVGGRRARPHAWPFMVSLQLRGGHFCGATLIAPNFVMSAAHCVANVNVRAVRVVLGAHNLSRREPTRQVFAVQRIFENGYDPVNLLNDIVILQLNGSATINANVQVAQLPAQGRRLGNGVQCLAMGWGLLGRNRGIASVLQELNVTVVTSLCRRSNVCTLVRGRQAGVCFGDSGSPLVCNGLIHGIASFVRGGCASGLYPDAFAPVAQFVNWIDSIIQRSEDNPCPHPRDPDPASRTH
In words: Protease inhibition assay (in vitro), human sputum elastase. In kind it is biochemical. To be noted: substrate methoxysuccinyl-(Ala)2-Pro-Val-p-nitroanilide, 30 min, room temperature, pH 7.5. Here is the method: (§1) A buffer used throughout the assay was 0.1M HEPES (4-(2-hydroxyethyl)-1-piperazineethanesulfonic acid) containing 0.5M NaCl, pH 7.5. Twenty-five microliters of 2 mM methoxysuccinyl-(Ala)2 -Pro-Val-p-nitroanilide (100 mM of dimethyl sulfoxide solution were diluted in the buffer) and 50 μl of sample (10 μl of sample in organic solvent was diluted 5-fold in the buffer) were mixed in wells of 96 well-microliter plate. An absorbance of the mixture in wavelength at 415 nm was measured by a microplate reader (Corona Electric Co., Ibaraki, Japan). After the measurement, 25 μl of 6 μg/ml human sputum elastase (HSE) was added and the mixture was allowed to stand for 30 minutes at room temperature. Then, the absorbance at 415 nm was measured. Percent inhibition by drug was determined by 100×(1-"r" inhibitor present/"r" inhibitor absent), where "r" is absorbance after 30 minutes incubation minus absorbance before enzyme addition. Effect of inhibitors against porcine pancreas elastase (Type IV, 5 μg/ml final) was assayed similarly using N-succinyl-(Ala)3 -p-nitroanilide. HSE was obtained from Elastin Products Company Inc., Mo., U.S.A. All other substrates and protease were purchased from Sigma Chemicals Co.

The target in assay [3] is T2, porcine pancreas elastase (Type IV) (Sus scrofa, UniProt P00772).
T2 construct: purchased Sigma Chemicals Co; host or cells: porcine pancreas (from the enzyme's name)
T2 sequence (P00772 27-266): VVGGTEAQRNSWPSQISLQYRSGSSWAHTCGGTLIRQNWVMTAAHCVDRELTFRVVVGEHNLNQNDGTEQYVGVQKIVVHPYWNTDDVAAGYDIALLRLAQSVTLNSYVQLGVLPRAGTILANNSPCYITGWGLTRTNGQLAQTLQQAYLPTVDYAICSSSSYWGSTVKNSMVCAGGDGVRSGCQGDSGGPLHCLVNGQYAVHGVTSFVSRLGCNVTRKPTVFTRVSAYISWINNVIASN
In words: Protease inhibition assay (in vitro), porcine pancreas elastase. In kind it is biochemical. The following applies: substrate N-succinyl-(Ala)3-p-nitroanilide, enzyme 5 μg/ml final. How it is done:
as §1

The mark [4] stands for this setting: read-out: IC50 Porcine pancreas elastase.

Like-named read-outs stand apart in the source and are kept apart here.

A word on the IC50: it is the concentration needed to halve the response being measured. `CC(C)C(NC(=O)[C@@H]1CCCN1C(=O)[C@@H](NC(=O)c1ccc(C(=O)NCC(=O)O)cc1)C(C)C)C(=O)C(F)(F)F` (mixture of isomers) [Example 13, 3(RS)-[[4-(carboxymethylaminocarbonyl)phenylcarbonyl]-L-valyl-L-prolyl]amino-1,1,1-trifluoro-4-methyl-2-oxopentane]: the “% inhibition of elastase-induced lung hemorrhage” value (“% inhibition” for short) in assay [1] (1 μg/site intratracheal) worked out at 21.6%; in assay [1] (10 μg/site intratracheal) it was 74.5%; in assay [1] (100 μg/site intratracheal), 100.0%. The entries for the “Hemorrhage (OD541 nm)” value in assay [1] (1 μg/site intratracheal), in assay [1] (10 μg/site intratracheal) and in assay [1] (100 μg/site intratracheal) were 11.63 ± 1.99 OD541 nm, 4.217 ± 1.02 OD541 nm and 0.6384 ± 0.222 OD541 nm, respectively. Also, the “ED50 elastase-induced lung hemorrhage” value in assay [1] worked out at 3.0 μg/site. The IC50 in assay [2] came to 720 nM; in assay [3] (IC50 Porcine pancreas elastase) it was 3300 nM.

In the case of `CC(C)C(NC(=O)[C@@H]1CCCN1C(=O)[C@@H](NC(=O)c1ccc(C(=O)NCCCC(=O)O)cc1)C(C)C)C(=O)C(F)(F)F` (mixture of isomers) [Example 20, 3(RS)-[[4-[(3-carboxypropyl)aminocarbonyl]phenylcarbonyl]-L-valyl-L-prolyl]amino-1,1,1-trifluoro-4-methyl-2-oxopentane], the “% inhibition” value in assay [1] (1 μg/site intratracheal) is listed as 16.1%; in assay [1] (10 μg/site intratracheal), 86.0%; in assay [1] (100 μg/site intratracheal), 104.7%. In addition, the “Hemorrhage (OD541 nm)” value in assay [1] (1 μg/site intratracheal) is listed as 10.94 ± 1.35 OD541 nm; in assay [1] (10 μg/site intratracheal), 2.522 ± 0.803 OD541 nm; in assay [1] (100 μg/site intratracheal) it was 0.2680 ± 0.050 OD541 nm. In addition, the “ED50 elastase-induced lung hemorrhage” value in assay [1] is 2.5 μg/site. Further, the IC50 in assay [2] was 890 nM; in assay [3] (setting [4]), 2400 nM.

`CC(C)C(NC(=O)[C@@H]1CCCN1C(=O)[C@@H](NC(=O)c1ccc(C(=O)NCCN2CCOCC2)cc1)C(C)C)C(=O)C(F)(F)F.Cl` (mixture of isomers) [Example 21, 3(RS)-[[4-[[2-(4-morpholino)ethyl]aminocarbonyl]phenylcarbonyl]-L-valyl-L-prolyl]amino-1,1,1-trifluoro-4-methyl-2-oxopentane hydrochloride]: the “% inhibition” value in assay [1] (1 μg/site intratracheal) amounted to 13.6%; in assay [1] (10 μg/site intratracheal) it was 66.3%; in assay [1] (100 μg/site intratracheal), 100.0%. The “Hemorrhage (OD541 nm)” value was 12.76 ± 1.11 OD541 nm in assay [1] (1 μg/site intratracheal), 5.372 ± 2.06 OD541 nm in assay [1] (10 μg/site intratracheal) and 0.6476 ± 0.129 OD541 nm in assay [1] (100 μg/site intratracheal). Further, the “ED50 elastase-induced lung hemorrhage” value in assay [1] was found to be 4.5 μg/site. For the same compound, the IC50 in assay [2] amounted to 1200 nM; in assay [3] (setting [4]) it was 3700 nM.

As for `CC(C)C(NC(=O)CN(C(=O)[C@@H](NC(=O)c1ccc(C(=O)NCC(=O)O)cc1)C(C)C)C1Cc2ccccc2C1)C(=O)C(F)(F)F` (mixture of isomers) [Example 27, 3(RS)-[[4-(carboxymethylaminocarbonyl)phenylcarbonyl]-L-valyl-N-(2-indanyl)glycyl]-amino-1,1,1-trifluoro-4-methyl-2-oxopentane], the figures for the “% inhibition” value in assay [1] (1 μg/site intratracheal), in assay [1] (10 μg/site intratracheal) and in assay [1] (100 μg/site intratracheal) were 24.8%, 66.9% and 99.8%, respectively. In addition, the “Hemorrhage (OD541 nm)” value is listed as 10.68 ± 1.25 OD541 nm in assay [1] (1 μg/site intratracheal), 4.878 ± 0.917 OD541 nm in assay [1] (10 μg/site intratracheal) and 0.3451 ± 0.084 OD541 nm in assay [1] (100 μg/site intratracheal). Moreover, in assay [1], the “ED50 elastase-induced lung hemorrhage” value is reported as 3.7 μg/site. Further, the IC50 in assay [2] was determined as 2400 nM; in assay [3] (setting [4]), 16000 nM.

For `CC(C)C(NC(=O)CN(C(=O)[C@@H](NC(=O)c1ccc(C(=O)NCCN2CCOCC2)cc1)C(C)C)C1Cc2ccccc2C1)C(=O)C(F)(F)F` (mixture of isomers) [Example 29, 3(RS)-[[4-[[2-(4-morpholino)ethyl]aminocarbonyl]phenylcarbonyl]-L-valyl-N-(2-indanyl)glycyl]amino-1,1,1-trifluoro-4-methyl-2-oxopentane], the results for the “% inhibition” value in assay [1] (1 μg/site intratracheal), in assay [1] (10 μg/site intratracheal) and in assay [1] (100 μg/site intratracheal) were 14.9%, 43.2% and 69.4%, respectively. Further, the “Hemorrhage (OD541 nm)” value in assay [1] (1 μg/site intratracheal) was 12.05 ± 1.95 OD541 nm; in assay [1] (10 μg/site intratracheal), 8.155 ± 1.76 OD541 nm; in assay [1] (100 μg/site intratracheal) it was 4.545 ± 1.49 OD541 nm. For the same compound, in assay [1], the “ED50 elastase-induced lung hemorrhage” value is on record as 17.9 μg/site. Besides, the IC50 stood at 2400 nM in assay [2] and 19000 nM in assay [3] (setting [4]).
